Here are results for eight compounds from ChEMBL document CHEMBL1201862, “PubChem BioAssay data set” (2004).

Molecules are shown by their SMILES.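 Assay format: 96-well plates, 48-hour exposure. GI50: concentration for 50% inhibition of growth.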 Calls of active or inactive are those of the source. Cut-off read from the data, not from the text of the source: active = GI50 up to about 1.1 µM and inactive = higher. Bounds are passed on as bounds.

Test systems include NCI-H23; IGROV-1; SF-539; NCI-H460; HOP-92; SK-MEL-28; M14; SK-MEL-5; UACC-257; LOX IMVI; CCRF-CEM; EKVX; HCT-15; SNB-19; UO-31; RPMI-8226; SF-268; SK-OV-3; KM12; TK-10.
Common to all, as to assay: NCI-60 cell line screen, 48 h

For the compound `COc1ccc2cc(CNCCCCCCCCCCCCNCc3ccc4cc(OC)ccc4c3)ccc2c1`, the GI50 in the assay with NCI-H23 was 20 µM (inactive); in the assay with IGROV-1, 15.8 µM (inactive); in the assay with SF-539, 17.4 µM (inactive); in the assay on NCI-H460, 17.3 µM (inactive); in the assay with HOP-92, 21.7 µM (inactive); with SK-MEL-28, 27.7 µM (inactive). Besides, the GI50 in the assay on M14 was 17.4 µM (inactive); in the assay on SK-MEL-5, 22.6 µM (inactive); in the assay on UACC-257 it was 21 µM (inactive); with LOX IMVI it was 15 µM (inactive); in the assay with CCRF-CEM, 9.46 µM (inactive); with EKVX, 20.3 µM (inactive). The GI50 in the assay with HCT-15 is 17.6 µM; in the assay on SNB-19, 17.5 µM (inactive); with UO-31 it was 20.9 µM (inactive); in the assay with RPMI-8226, 12.8 µM (inactive); in the assay with SF-268 it was 8.04 µM (inactive); with SK-OV-3, 18.7 µM (inactive). Also, the GI50 in the assay on KM12 is 19.2 µM (inactive); in the assay on TK-10, 18.8 µM (inactive).
With `N#C/C(=C\c1ccc(C(O)P(=O)(O)O)cc1)C(N)=O` (stereo not given), the GI50 in the assay on NCI-H23 is > 100 µM (inactive); with IGROV-1 it was > 100 µM (inactive); in the assay with SF-539, 35.3 µM (inactive); in the assay on NCI-H460, 6.44 µM (inactive); in the assay with HOP-92, > 100 µM (inactive); in the assay with SK-MEL-28, > 100 µM (inactive). Further, the GI50 was > 100 µM (inactive) with M14; > 100 µM (inactive) in the assay with SK-MEL-5; > 100 µM (inactive) in the assay with UACC-257; > 100 µM (inactive) in the assay with LOX IMVI; 9.93 µM (inactive) in the assay with CCRF-CEM; > 100 µM (inactive) in the assay with EKVX. Besides, the GI50 is over 100 µM in the assay with HCT-15; > 100 µM (inactive) in the assay with SNB-19; > 100 µM (inactive) with UO-31; > 100 µM (inactive) in the assay on RPMI-8226; > 100 µM (inactive) in the assay with SF-268; > 100 µM (inactive) in the assay with SK-OV-3. Besides, the GI50 in the assay on KM12 and with TK-10 was > 100 µM (inactive) throughout.
For `Cn1c2ncccc2n2c(=O)cc(O)cc12`, the GI50 in the assay on NCI-H23 was > 100 µM (inactive); with IGROV-1, 12.3 µM (inactive); in the assay with SF-539 it was > 100 µM (inactive); with NCI-H460 it was 60.5 µM (inactive); in the assay with HOP-92, 18.2 µM (inactive); with SK-MEL-28 it was 89.3 µM (inactive). The GI50 is > 100 µM (inactive) in the assay on M14; > 100 µM (inactive) in the assay on SK-MEL-5; > 100 µM (inactive) in the assay with UACC-257; 53.6 µM (inactive) with LOX IMVI; > 100 µM (inactive) with CCRF-CEM; 86.1 µM (inactive) in the assay with EKVX. Besides, the GI50 is 48 µM in the assay on HCT-15; > 100 µM (inactive) with SNB-19; 47.2 µM (inactive) with UO-31; > 100 µM (inactive) with RPMI-8226; 54.2 µM (inactive) in the assay on SF-268; > 100 µM (inactive) in the assay on SK-OV-3. For the same compound, the GI50 with KM12 is 65.8 µM (inactive); with TK-10, 45 µM (inactive).
With `CN1C(=O)C2C=C3CCCCC3=CC2N(C)C1=O` (stereo not given), the GI50 in the assay on NCI-H23 is > 100 µM (inactive); with IGROV-1 it was > 100 µM (inactive); with SF-539, > 100 µM (inactive); in the assay on NCI-H460 it was > 100 µM (inactive); in the assay with HOP-92, 99.1 µM (inactive); in the assay on SK-MEL-28, > 100 µM (inactive). For the same compound, the GI50 is > 100 µM (inactive) with M14; > 100 µM (inactive) in the assay on SK-MEL-5; > 100 µM (inactive) in the assay on UACC-257; > 100 µM (inactive) in the assay with LOX IMVI; > 100 µM (inactive) in the assay on CCRF-CEM; 77.4 µM (inactive) with EKVX. In addition, the GI50 in the assay with HCT-15 was over 100 µM; with SNB-19, > 100 µM (inactive); in the assay with UO-31, > 100 µM (inactive); with RPMI-8226, > 100 µM (inactive); in the assay on SF-268, > 100 µM (inactive); with SK-OV-3, > 100 µM (inactive). The GI50 in the assay with KM12 and in the assay with TK-10 was > 100 µM (inactive) throughout.
In the case of `Cc1ccc(S(=O)(=O)C2=Cc3ccc(C(F)(F)F)cc3C2(O)c2cccc(C(F)(F)F)c2)cc1` (stereo not given), the GI50 is 2.01 µM (inactive) with NCI-H23; 2.64 µM (inactive) in the assay with IGROV-1; 1.95 µM (inactive) in the assay with SF-539; 2.33 µM (inactive) in the assay with NCI-H460; 1.88 µM (inactive) in the assay with HOP-92; 1.9 µM (inactive) in the assay with SK-MEL-28. Besides, the GI50 was 2.4 µM (inactive) in the assay on M14; 1.88 µM (inactive) with SK-MEL-5; 1.85 µM (inactive) with UACC-257; 1.91 µM (inactive) in the assay on LOX IMVI; 2.56 µM (inactive) with CCRF-CEM; 2.87 µM (inactive) in the assay on EKVX. Further, the GI50 is 1.95 µM in the assay with HCT-15; 5.83 µM (inactive) with SNB-19; 2.25 µM (inactive) in the assay on UO-31; 2.65 µM (inactive) in the assay on RPMI-8226; 2.39 µM (inactive) with SF-268; 10.2 µM (inactive) in the assay on SK-OV-3. Also, the GI50 was 1.88 µM (inactive) with KM12 and 2.47 µM (inactive) with TK-10.
`COC(=O)[C@@H](NC1(c2ccccc2)c2ccccc2-c2ccccc21)[C@@H](C(=O)OC)N(NC(=O)OCc1ccccc1)C(=O)OCc1ccccc1.COC(=O)[C@@H](NC1(c2ccccc2)c2ccccc2-c2ccccc21)[C@H](C(=O)OC)N(NC(=O)OCc1ccccc1)C(=O)OCc1ccccc1`: the GI50 in the assay on NCI-H23, with IGROV-1, with SF-539, in the assay with NCI-H460, in the assay with HOP-92 and in the assay with SK-MEL-28 was > 100 µM (inactive) throughout. The GI50 was > 100 µM (inactive) with M14; > 100 µM (inactive) in the assay on SK-MEL-5; > 100 µM (inactive) in the assay on UACC-257; > 100 µM (inactive) in the assay with LOX IMVI; > 100 µM (inactive) with CCRF-CEM; 21.4 µM (inactive) in the assay with EKVX. Also, the GI50 in the assay with HCT-15 was over 100 µM; with SNB-19 it was > 100 µM (inactive); with UO-31, > 100 µM (inactive); with RPMI-8226, > 100 µM (inactive); with SF-268, > 100 µM (inactive); in the assay on SK-OV-3 it was > 100 µM (inactive). Besides, the GI50 in the assay on KM12 and with TK-10 was > 100 µM (inactive) each time.
As for `COC(=O)C1=COC2OC3CC1C2C(C)O3` (stereo not given), the GI50 in the assay with NCI-H23, in the assay on IGROV-1, in the assay with SF-539, in the assay on NCI-H460, with HOP-92 and in the assay with SK-MEL-28 was > 100 µM (inactive) throughout. The GI50 in the assay with M14, with SK-MEL-5, with UACC-257, in the assay with LOX IMVI, in the assay on CCRF-CEM and in the assay with EKVX was > 100 µM (inactive) in each case. In addition, the GI50 in the assay with HCT-15 is over 100 µM; in the assay with SNB-19 it was > 100 µM (inactive); in the assay with UO-31, > 100 µM (inactive); with RPMI-8226, > 100 µM (inactive); in the assay on SF-268, > 100 µM (inactive); in the assay with SK-OV-3, > 100 µM (inactive). The GI50 in the assay with KM12 and in the assay with TK-10 was > 100 µM (inactive) throughout.
As to `COc1cc2c3c(c4ccc(O)cc4c2cc1OC)[C@@H](O)[C@@H]1CCCN1C3`, the GI50 in the assay with NCI-H23 was 0.0012 µM (active); with IGROV-1 it was < 0.001 µM (active); in the assay with SF-539 it was < 0.001 µM (active); with NCI-H460, < 0.001 µM (active); in the assay on HOP-92, 0.0011 µM (active); in the assay with SK-MEL-28, < 0.001 µM (active). Further, the GI50 is < 0.001 µM (active) in the assay with M14; < 0.001 µM (active) with SK-MEL-5; 0.00121 µM (active) with UACC-257; < 0.001 µM (active) with LOX IMVI; < 0.001 µM (active) in the assay on CCRF-CEM; < 0.001 µM (active) in the assay on EKVX. Also, the GI50 in the assay on HCT-15 was under 0.001 µM; with SNB-19 it was < 0.001 µM (active); in the assay with UO-31 it was < 0.001 µM (active); in the assay on RPMI-8226 it was < 0.001 µM (active); in the assay on SF-268, < 0.001 µM (active); in the assay on SK-OV-3 it was 0.00105 µM (active). For the same compound, the GI50 in the assay on KM12 is < 0.001 µM (active); in the assay with TK-10, 0.00106 µM (active).
